# Assay results: patent publication EP0774116B1, “METHOD FOR SCREENING COMPOUND LIBRARIES” (ZENECA LIMITED, priority 1994, dated 1996)
# How the values were obtained:
# [1] = target: T1, endothelin converting enzyme (Bos taurus, UniProt P42891); experiment: Zones of enzyme inhibition in Sephacryl gel with fluorogenic FRET substrate, fluorescence imaging; type: biochemical; conditions: beads impregnated with 10mM solution in DMSO; gel left at ambient temperature overnight; FRET substrate 4micromolar
# T1 construct: Samples of endothelin converting enzyme (ECE) were obtained essentially according to the method of Okada et al; endogenous in cells; By own knowledge of Okada et al. 1990: membrane fraction of cultured bovine endothelial cells
# T1 sequence (P42891 1-754): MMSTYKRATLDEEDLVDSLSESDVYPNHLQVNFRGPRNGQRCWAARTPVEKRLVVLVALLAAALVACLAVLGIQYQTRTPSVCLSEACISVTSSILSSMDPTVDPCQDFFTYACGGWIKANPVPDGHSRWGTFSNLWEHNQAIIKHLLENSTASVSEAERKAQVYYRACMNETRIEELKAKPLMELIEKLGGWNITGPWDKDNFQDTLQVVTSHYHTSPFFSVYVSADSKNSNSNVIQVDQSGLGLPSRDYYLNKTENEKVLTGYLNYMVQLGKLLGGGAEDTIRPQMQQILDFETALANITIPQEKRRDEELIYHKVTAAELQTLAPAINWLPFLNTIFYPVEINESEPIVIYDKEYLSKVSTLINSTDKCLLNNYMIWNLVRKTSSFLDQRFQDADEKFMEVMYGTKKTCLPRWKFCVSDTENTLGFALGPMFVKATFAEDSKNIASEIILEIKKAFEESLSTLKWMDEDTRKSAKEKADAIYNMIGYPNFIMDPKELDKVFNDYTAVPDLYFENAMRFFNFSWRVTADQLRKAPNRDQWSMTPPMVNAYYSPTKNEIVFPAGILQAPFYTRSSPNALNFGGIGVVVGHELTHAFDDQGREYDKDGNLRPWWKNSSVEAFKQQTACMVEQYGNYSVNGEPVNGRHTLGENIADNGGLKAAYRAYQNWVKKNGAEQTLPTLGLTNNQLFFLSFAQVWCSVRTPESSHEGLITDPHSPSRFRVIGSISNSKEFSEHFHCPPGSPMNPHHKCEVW
# Description: In this example, polystyrene beads are impregnated with a compound (phosphoramidon) to simulate the situation that would arise when a compound is made on a bead and then released prior to contacting the assay medium. The assay medium comprises a Sephacryl™ gel containing an enzyme, endothelin converting enzyme, and a fluorogenic FRET substrate, following by fluorescence imaging of the gel.
# Ca 300 beads as used in Example 1 were suspended in a solution of phosphoramidon (10mM) in DMSO, allowed to swell and washed briefly in DMSO.
# The FRET substrate, was derived from that of human big endothelin-1, 16-37, with Glu-26 changed to Cys: [formula] Fluorescein had been attached to Cys-26 and tetramethylrhodamine attached to the N-terminus, such that cleavage of the substrate removes the quenching effect of the tetramethylrhodamine resulting in an increase of fluorescein fluorescence.
# The assay phase was assembled as follows. Sephacryl™ S-500 gel was suspended in 0.2M Tris/HCl pH 7.2 containing 0.5% BSA and then washed with buffer alone. To this gel suspension (24.5ml) was added the FRET substrate (3ml, 4micromolar final) and ECE (2.6 microlitres). After gentle mixing, the gel was poured into the polystyrene lid of a microtitre plate, allowed to settle and excess liquid gently removed with a tissue. […] The gel was then imaged on a fluorescence imager (FluorImager, Molecular Dynamics).
# [2] = system: porcine endothelin receptor; experiment: Zone screening scintillation proximity assay in agarose gel, [125-I]Endothelin binding to receptor-coated SPA microspheres; conditions: one bead per well
# Description: Agarose (Sigma) was suspended in distilled water and heated to boiling point in a microwave to melt, then cooled to 50 deg. C. Microspheres coated with the porcine endothelin receptor (1 vial, SPA, Amersham) were re-constituted in assay buffer (50 mM Tris.HCl, 1 mM EDTA, 0.1% BSA, 10 mM MgC12, pH 6.4 (25 ml). This suspension (10 ml) was then added to the cooled (50 deg. C) agarose (10 ml), vortexed mixed and 0.1 ml portions immediately added to wells of a white microtitre plate (Picoplate-96, Packard).
# Test compounds were prepared as follows. Polystyrene beads (as used in example 1) were suspended in DMSO solutions of endothelin-1 (Cambridge Research Biochemicals) or various test compounds (T1 - T4) at various concentrations (see Table 1) for about 2 hours. After a spin (1 min.) on a micro-fuge, the beads were washed briefly in ethanol. Single beads were then transfered with forceps into the centre of the wells containing the SPA/agarose mix, one bead per well.
# [125-I]Endothelin (Amersham) was diluted into the assay buffer to give a 180 pM solution. 6 ml of this was added to 6 ml of 1% agarose (at 50 deg. C) and vortexed mixed. 0.05 ml aliquots were then immediately added to each well. The plate was then sealed (Topseal-S, Packard) and counted at intervals (Top Count, Packard) for 2 minutes per well. By reference to a total control (no compound present) and non-specific binding control (40 micromolar endothelin-1, measured after 8 hours incubation), the per cent inhibition caused by each compound as it diffused away from the bead was calculated.
# This inhibition is related to the potency of the compound. […]
# endothelin receptor = experiment: IC-50 determination by conventional filtration techniques (Holland et al.); type: binding
molecule,measurement,setting,value
CC(C)C[C@H](NP(=O)(O)O[C@@H]1O[C@@H](C)[C@H](O)[C@@H](O)[C@H]1O)C(=O)N[C@@H](Cc1c[nH]c2ccccc12)C(=O)O [phosphoramidon],zones of enzyme inhibition in gel (fluorescence image),[1],zones of reduced fluorescence
endothelin-1,inhibition (%),"[2]; readings at 2 hours, bead soaked in 1.25 micromolar DMSO solution",-0.6%
same,inhibition (%),"[2]; readings at 2 hours, bead soaked in 2.5 micromolar DMSO solution",12.3%
same,inhibition (%),"[2]; readings at 2 hours, bead soaked in 5 micromolar DMSO solution",19.5%
same,inhibition (%),"[2]; readings at 2 hours, bead soaked in 10 micromolar DMSO solution",36.3%
same,inhibition (%),"[2]; readings at 2 hours, bead soaked in 20 micromolar DMSO solution",85.2%
same,inhibition (%),"[2]; readings at 2 hours, bead soaked in 40 micromolar DMSO solution",(100) %
same,inhibition (%),"[2]; readings at 8 hours, bead soaked in 1.25 micromolar DMSO solution",6.5%
same,inhibition (%),"[2]; readings at 8 hours, bead soaked in 2.5 micromolar DMSO solution",14.0%
same,inhibition (%),"[2]; readings at 8 hours, bead soaked in 5 micromolar DMSO solution",18.2%
same,inhibition (%),"[2]; readings at 8 hours, bead soaked in 10 micromolar DMSO solution",40.0%
same,inhibition (%),"[2]; readings at 8 hours, bead soaked in 20 micromolar DMSO solution",47.5%
same,inhibition (%),"[2]; readings at 8 hours, bead soaked in 40 micromolar DMSO solution",(100) %
same,IC50,endothelin receptor,0.18 nM
